Publication PMC11472310, “Distinctive Immune Signatures Driven by Structural Alterations in Desmuramylpeptide NOD2 Agonists” (Journal of Medicinal Chemistry, 2024)

Columns and labels:
[1] = system: human blood monocyte subsets; assay: Monocyte conversion assay in PBMCs (CD14/CD16 flow cytometry); format: cell-based; settings: 10 μM, 18 h, NT 19.5%
From the text: Engagement of NOD2 has been reported to increase the levels of an anti-inflammatory monocyte subset, denoted as patrolling monocytes (CD14^–, CD16^+2), thus exerting a counterintuitive role in inflammatory processes, while concomitantly increasing the levels of total blood monocytes (released from bone marrow).[18] […] This process involves a transition from the inflammatory monocytes, typified by CD14^+CD16^–, through an intermediate subset of CD14^+CD16^+ monocytes. […] To recapitulate this phenomenon, we modified the reported procedure and employed PBMCs in lieu of isolated monocytes. Identification of human blood monocyte subsets was achieved through flow cytometry, utilizing the expression of CD14 and CD16 markers as distinguishing criteria. […] Similar to what has been reported (e.g., inactivity of murabutide),[18] also in our case not all NOD2 agonists were equally endowed with the ability to generate patrolling monocytes.
The monocyte conversion assay was conducted following previously established methods, with some adjustments.[18] Peripheral blood mononuclear cells were plated at a density of 3 × 10^6 cells/mL in 24-well plates containing 700 μL of growth medium. Cells were then treated with MDP and desmuramylpeptides (10 μM) or the corresponding vehicle (0.1% DMSO). Following an incubation period at 37 °C with 5% CO2, cells were transferred to 1.5 mL tube using phosphate-buffered saline (PBS) and scraper. The cells were blocked with human TruStain Fcx (BioLegend) and stained using antihuman CD16 antibodies/Alexa Fluor 488 (BioLegend); antihuman CD14 antibodies/PE-Cy7 (BioLegend); antihuman HLA-DR antibodies/APC-Fire750 (BioLegend) and blocked with TrueStain Monocyte Blocker. A viability dye Helix NP Blue (BioLegend) was added to the previous panel to discriminate live cells. PBMC were analyzed using an Attune NxT flow cytometer (Thermo Fisher Scientific, Waltham, MA, USA) and the FlowJo software (Tree Star, Inc., Ashland, OR, USA). Initially, lymphocytes (CD14^–, CD16^–) and NK (CD16^–, HLA-DR^–) were eliminated, after which classical, intermediate and nonclassical monocytes were specifically identified by selective gating strategy as follows: CD14^+ CD16^– (classical), CD14^+ CD16^+ (intermediate) and CD14^– CD16^+ (nonclassical). Each experiment was conducted in duplicate and repeated in three independent biological replicates.

[2] = system: human PBMCs; assay: Cytokine release from peripheral blood mononuclear cells (LEGENDplex panel); format: cell-based; settings: 18 h; for production of proinflammatory cytokines and chemokines including IL-6, IL-8 and MCP-1: 2 μM alone (no LPS)
From the text: The immunomodulatory effects of the selected desmuramylpeptides were examined in human primary peripheral blood mononuclear cells (PBMCs). This diverse mixture of immune cells provided a platform to investigate the effects of these NOD2 agonists within a physiologically relevant environment, encompassing other NOD2-interacting and downstream signaling proteins. […] Given that NOD2 activation often modulates the Toll-like receptor (TLR)-induced cytokine responses, we investigated the impact of combining desmuramylpeptides with lipopolysaccharide (LPS), a well-known TLR4 agonist, on cytokine secretion.[76]−[78]
The elicited cytokine profiles thus broadly reflect the structure–activity relationships obtained in the reporter gene assays.
Peripheral blood mononuclear cells were plated at a density of 1 × 10^6 cells/mL in 48-well plates containing 500 μL of growth medium. Cells were then treated with the compounds (2 μM) or the corresponding vehicle (0.1% DMSO), both in the absence and presence of LPS (10 ng/mL). Following an 18 h incubation period at 37 °C with 5% CO2, cell-free supernatants were collected and stored at −80 °C until analysis. […] Standard curves were constructed using recombinant cytokines provided in the kit. Data analysis was performed using Biolegend software Qognit and Prism (GraphPad, San Diego, CA, USA) software. The experiments were independently replicated four times. Statistical significance was determined using two-way analysis of variance (ANOVA) followed by Tukey’s multiple comparisons test.

[3] = system: PBMCs; assay: Direct cytotoxic effect of compounds on PBMCs (Sytox blue); format: cell-based
Experimental: Additionally, PBMCs and cancer cells alone were treated with desmuramylpeptides to assess any direct cytotoxic effects on these cells.
(§1) The PBMC cytotoxicity assays utilizing K562 cells were conducted following previously established methods, with some adjustments.[82] […] Meanwhile, K562 cells were stained with CFSE (Invitrogen, Carlsbad, CA, USA), washed twice with complete medium, and then added (1 × 10^4 cells per well) to the pretreated PBMCs to achieve a final effector cell to target tumor cell ratio of 40:1. Following a 4-h coincubation period at 37 °C with 5% CO2, cells were stained with Sytox blue dead cell stain (Invitrogen) and analyzed using an Attune NxT flow cytometer (Thermo Fisher Scientific, Waltham, MA, USA) along with FlowJo software (Tree Star, Inc., Ashland, OR, USA). Cells positive for both CFSE and Sytox blue were designated as dead K562 cells. PBMCs alone and CFSE-labeled cancer cells alone were also exposed to the compounds at equivalent concentrations and stained with Sytox blue to assess any direct cytotoxic effects of the compounds on PBMCs and cancer cells separately. Each experiment was conducted in duplicate and repeated in three independent biological replicates. Statistical analysis was performed using one-way ANOVA followed by Dunnett’s multiple comparisons test.

[4] = system: K562 cancer cells; assay: PBMC cytotoxicity against K562 cancer cells (flow cytometry); format: cell-based; settings: for cytotoxicity of PBMCs against K562 cells, cotreatment with LPS (relative to negative control) / Cytotoxicity (ratio to control), + LPS: 10 μM + LPS 1 μg/mL; for cytotoxicity of PBMCs against K562 cells, cotreatment with LPS (relative to negative control) / enhancement of cytotoxicity of PBMCs against K562 cells (relative to negative control): 18 h, then 4 h coincubation; for cytotoxicity of PBMCs against K562 cells, cotreatment with LPS (relative to negative control): 40:1; for Cytotoxicity (ratio to control), + LPS / Cytotoxicity (ratio to control): Table S2; for Cytotoxicity (ratio to control) / enhancement of cytotoxicity of PBMCs against K562 cells (relative to negative control): alone: compounds 10 μM, LPS 1 μg/mL, IL-2 200 U/mL; for enhancement of cytotoxicity of PBMCs against K562 cells (relative to negative control): effector:target 40:1
Experimental: In this study, we investigated the potential of desmuramylpeptides, both alone and in combination with LPS, to enhance the cytotoxic activity of PBMCs against cancer cells employing a flow-cytometry-based cytotoxicity assay based on coincubation of preactivated PBMCs with fluorescently labeled K562 cancer cells.[82] Among the diverse subpopulations within PBMCs, natural killer (NK) cells play a pivotal role in detecting and eliminating cancer cells. NOD2-mediated NK cell activity against cancer cells arises from both direct NOD2 agonist elicited cytolytic activity of NK cells[83] and indirect activation through cytokine release by other NOD2-responsive cells, such as monocytes, which comprise approximately 10% of PBMCs; such interactions potentially reinforce the immune response.[84] […] To that end, we utilized the entire PBMC population as effector cells rather than isolated NK cells, to mimic conditions more closely resembling the in vivo environment while K562 chronic myelogenous leukemia cells were used as the target cells in a 40:1 effector to target cell ratio.[87]
as §1

[5] = biological target: T1, hNOD2 (Homo sapiens, UniProt Q9HC29); assay: HEK-Blue NOD2 cell line reporter assay (NF-κB-inducible SEAP); format: cell-based; settings: HEK-Blue NOD2 cells, 18 h, NF-κB transcriptional activity (SEAP); read-out: EC50 (nM), NOD2 agonistic activity
T1 construct: host or cells: HEK-Blue NOD2 cells (HEK293)
Experimental: To assess the NOD2 agonistic potential of the synthesized desmuramylpeptides at a cellular level, we employed the HEK-Blue NOD2 cell line reporter assay, a validated and commercially available method. All synthesized compounds were evaluated for their dose-dependent activities to establish their EC50 values.
The HEK-Blue NOD1 and NOD2 cell line reporter assay was generated from HEK293 cells through cotransfection of the hNOD1 or hNOD2 gene, respectively, along with an NF-κB-inducible secreted embryonic alkaline phosphatase (SEAP) reporter gene. Upon activation of NOD1 or NOD2, NF-κB triggers the production of SEAP, which can be quantitatively measured colorimetrically. […] After 18 h of incubation at 37 °C with 5% CO2, SEAP activity was measured spectrophotometrically by absorbance at 630 nm (BioTek Synergy microplate reader; Winooski, VT, USA). EC50 values were determined using Prism software (version 9; GraphPad Software, CA, USA). Each experiment was conducted in duplicate and repeated in at least two independent biological replicates.

[6] = system: CD4+ T cells cocultured with BMDCs; assay: BMDC antigen presentation to ovalbumin-specific CD4+ T cells (OT II); format: cell-based, C57BL/6 mouse; settings: BMDCs pretreated 10 μM + ovalbumin 50 μg/mL 18 h, coculture 72 h; OVA-treated cells 63.8%
Experimental: (§2) For this study, we narrowed down the selection of suitable desmuramylpeptides even further. In order to assess the adjuvant potential of selected desmuramylpeptides with regard to their effect on DC-mediated activation of CD4^+ and CD8^+ T cells, we conducted an ex vivo antigen-presentation assay utilizing C57BL/6 mouse bone marrow-derived DCs (BMDCs). Upon stimulation with desmuramylpeptides at 10 μM, in conjunction with ovalbumin soluble protein (50 μg/mL), BMDCs were cocultured with carboxyfluorescein succinimidyl ester (CFSE)-labeled naïve ovalbumin-specific CD4^+ or CD8^+ T cells, which were isolated from splenocytes of OT II and OT I transgenic mice, respectively. […] Additionally, we investigated how the priming of T cells elicited by the tested compounds impacted the cytokine profiles secreted in BMDC/T-cell cocultures.
(§3) CD4^+ and CD8^+ T cells were isolated from splenocytes of OT II and OT I transgenic mice using CD4^+ and CD8^+ T cell isolation kits (Miltenyi Biotec, Germany) following the manufacturer’s instructions. The purified T cells were labeled with CFSE (Invitrogen, Carlsbad, CA, USA) and subsequently washed. Next, 5 × 10^4 T cells were combined with 1 × 10^4 BMDCs/well (pretreated with desmuramylpeptides at 10 μM and 50 μg/mL ovalbumin [Invivogen, San Diego, CA, USA] for 18 h and then washed). Following a 72-h incubation period at 37 °C with 5% CO2, supernatants were harvested and stored at −80 °C for cytokine analysis. The cells were then stained with Fixable viability dye eFluor 780 (eBioscience, Thermo Fisher Scientific, MA, USA), anti-Thy1.2-PE-Cy7 antibodies (Biolegend, San Diego, CA, USA), anti-CD8-eFluor450 antibodies (eBioscience), anti-CD4-eFluor450 antibodies (eBioscience), and anti-CD25-APC antibodies (Biolegend) before analysis using a Beckman Coulter Cytoflex S flow cytometer (CA, USA) and FlowJo software (Tree Star, Inc., Ashland, OR, USA). Live Thy1.2+/CD4+ and Thy1.2+/CD8+ cells were assessed for CFSE dilution and CD25 expression. Each experiment was performed in duplicate and repeated in two independent biological replicates. Statistical significance was determined using paired t tests.

[7] = system: BMDC/T-cell cocultures; assay: T cell cytokine release in BMDC/T-cell cocultures; format: cell-based, C57BL/6 mouse; settings: 10 μM, 72 h coculture
Experimental: as §2
Following 72 h of coincubation with BMDCs (pretreated with desmuramylpeptides [10 μM] and washed), supernatants from CD4^+ and CD8^+ T cells were harvested as previously described. […] Standard curves were constructed using recombinant cytokines provided in the kit. Data analysis was conducted using FlowJo (Tree Star, Inc., Ashland, OR, USA) and Prism (GraphPad, San Diego, CA, USA) software. Each experiment was performed in duplicate and replicated in two independent biological runs.

[8] = system: CD8+ T cells cocultured with BMDCs; assay: BMDC antigen cross-presentation to ovalbumin-specific CD8+ T cells (OT I); format: cell-based, C57BL/6 mouse; settings: BMDCs pretreated 10 μM + ovalbumin 50 μg/mL 18 h, coculture 72 h; OVA-treated cells 23.3%
Experimental: as §2
as §3, with “Each experiment was performed in duplicate and repeated in two independent biological replicates.” left out

[9] = Table S2, alone: compounds 10 μM, LPS 1 μg/mL, IL-2 200 U/mL

T1 sequence (Q9HC29 whole entry): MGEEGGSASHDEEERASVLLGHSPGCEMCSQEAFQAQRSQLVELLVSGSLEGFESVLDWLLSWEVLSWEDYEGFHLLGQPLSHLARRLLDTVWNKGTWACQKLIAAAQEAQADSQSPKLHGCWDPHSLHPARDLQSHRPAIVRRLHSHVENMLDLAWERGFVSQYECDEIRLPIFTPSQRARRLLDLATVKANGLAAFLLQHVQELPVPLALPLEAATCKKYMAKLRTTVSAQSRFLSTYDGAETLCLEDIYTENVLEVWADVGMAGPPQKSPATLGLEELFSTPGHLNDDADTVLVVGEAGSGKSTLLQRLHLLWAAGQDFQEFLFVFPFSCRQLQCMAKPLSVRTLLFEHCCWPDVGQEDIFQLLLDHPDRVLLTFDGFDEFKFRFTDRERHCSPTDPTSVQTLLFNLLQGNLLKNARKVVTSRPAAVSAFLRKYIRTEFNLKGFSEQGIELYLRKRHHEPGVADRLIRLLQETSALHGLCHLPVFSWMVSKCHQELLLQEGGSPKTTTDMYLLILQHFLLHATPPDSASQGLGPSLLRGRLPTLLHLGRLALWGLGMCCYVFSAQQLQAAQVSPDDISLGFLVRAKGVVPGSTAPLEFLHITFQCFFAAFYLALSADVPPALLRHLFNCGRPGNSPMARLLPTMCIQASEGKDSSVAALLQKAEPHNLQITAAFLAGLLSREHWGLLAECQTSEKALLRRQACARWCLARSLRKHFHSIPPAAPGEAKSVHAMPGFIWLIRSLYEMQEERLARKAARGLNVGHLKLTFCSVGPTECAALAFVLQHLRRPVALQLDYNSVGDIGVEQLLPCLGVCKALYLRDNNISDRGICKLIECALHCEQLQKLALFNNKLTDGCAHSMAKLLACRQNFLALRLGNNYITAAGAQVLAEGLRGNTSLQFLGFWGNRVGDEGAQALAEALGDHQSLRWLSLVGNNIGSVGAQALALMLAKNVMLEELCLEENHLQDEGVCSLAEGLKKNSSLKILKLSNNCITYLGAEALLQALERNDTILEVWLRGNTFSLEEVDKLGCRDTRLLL

| Compound | levels of nonclassical monocytes [1] [%] | levels of LPS-induced IL-10 ([2]; 2 μM + LPS 10 ng/mL) | production of proinflammatory cytokines and chemokines including IL-6, IL-8 and MCP-1 [2] | Percent of dead PBMCs ([3]; human, 18 h, 10 μM) | Percent of dead PBMCs, + LPS ([3]; human, 18 h, 10 μM) | cytotoxicity of PBMCs against K562 cells, cotreatment with LPS (relative to negative control) [4] [fold] | Cytotoxicity (ratio to control), + LPS [4] | Cytotoxicity (ratio to control) [4] | enhancement of cytotoxicity of PBMCs against K562 cells (relative to negative control) [4] | EC50 [5] [nM] | amounts of IL-1β, IL-6, IL-10, TNF-α and IFN-γ compared to the MDP/LPS combination ([2]; 2 μM + LPS 10 ng/mL) | levels of secreted MCP-1 compared to the MDP/LPS combination ([2]; 2 μM + LPS 10 ng/mL) | Percent of dead PBMCs, + LPS ([3]; Table S2, 10 μM + LPS 1 μg/mL) | Percent of dead PBMCs [3, 9] | fraction of activated and proliferating CD4+ T-cells (CD25+, CFSE low) [6] [%] | levels of IL-6 and TNF-α secreted by CD4+ T cells [7] | fraction of activated and proliferating CD8+ T-cells (CD25+, CFSE low) [8] [%] |
| --- | --- | --- | --- | --- | --- | --- | --- | --- | --- | --- | --- | --- | --- | --- | --- | --- | --- |
| CC(=O)N[C@H]1C(O)O[C@H](CO)[C@@H](O)[C@@H]1O[C@H](C)C(=O)N[C@@H](C)C(=O)N[C@H](CCC(=O)O)C(N)=O (mixture of isomers) [MDP, muramyl dipeptide, reference compound] | 31.5 | amplified | minor increases | 1.11% ± 0.15% | 7.95% ± 0.95% | 2.71 | 2.71 ± 0.16 | 1.17 ± 0.07 | no activity | 205 ± 64 |  |  |  |  |  |  |  |
| CCOC(=O)[C@@H](CCC(=O)NC12C[C@H]3C[C@@H](C1)C[C@@H](C2)C3)NC(=O)[C@@H](NC(=O)CNC(=O)/C=C/c1ccc(O)c(OC)c1)C(C)C [Compound 28, Ethyl N^5-((3S,5S,7S)-Adamantan-1-yl)-N^2-((E)-3-(4-hydroxy-3-methoxyphenyl)acryloyl)glycyl-L-valyl-D-glutaminate] |  | opposite | smaller increases |  |  | 2.19 | 2.19 ± 0.07 | 0.91 ± 0.02 | devoid of the capacity to induce cytotoxicity | > 10000 | lesser amounts | on par | 10.44% ± 0.63% | 0.99% ± 0.21% | 67.0 | slightly increased |  |
| lipopolysaccharide [LPS, reference compound] |  |  |  |  |  |  |  | 1.8 ± 0.08 | 1.80 fold |  |  |  |  | 4.16% ± 0.47 | 80.4 |  | 55.6 |
